Source: patent US8686022B2, “7-(piperazine-1-ymethyl)-1H-indole-2-carboxylic acid (phenyl)-amide derivatives and allied compounds as p38 MAP kinase inhibitors for the treatment of respiratory diseases” (Boehringer Ingelheim International GmbH, priority 2008, dated 2014)
≈ marks a conversion by molar mass, not a printed value. Where “and” joins values, the source holds several entries; their conditions need not be identical. Equal values may be shown once.

Legend:
p38 MAP-kinase = p38 MAP-kinase (Homo sapiens, UniProt Q16539); test: p38 MAP-kinase enzymatic assay (phosphorylation of GST-tagged ATF2, chemoluminescence); type: biochemical; details: inhibitor concentration 1 μM, activated p38 MAP-kinase 1 nM, ATP 100 μM; for inhibition at 1 µM: read-out: p38 (% Inh @ 1 μM)
Experimental: In this, the amount of a substrate phosphorylated by the kinase is quantified. The test is carried out as follows:
The kinase reaction is carried out in the presence of HEPES (20 mM, pH 7), MgCl2 (10 mM), DTT (1 mM) and TWEEN20 (0.01%). First, dimethylsulphoxide or inhibitor (final concentration: 1 μM) dissolved in dimethylsulphoxide are placed in a reaction vessel. Then the activated p38 MAP-kinase (final concentration 1 nM) is added and the mixture is incubated for 4 h at ambient temperature. Then a mixture of substrate (GST-tagged ATF2) and ATP is added and everything is incubated together for a further hour (final concentration ATP: 100 μM; final concentration ATF2: 10 nM).
The concentration of phosphorylated ATF2 is quantified by chemoluminescence-induced light emission. For this, a glutathione donor bead (final concentration: 5 μg/ml) which binds to the gluthathione on the ATF2 and phospho-ATF2 antibodies are added to the reaction mixture (final concentration: 3 nM; this binds the phosphate group added by the kinase reaction) to which a Protein A Acceptor Bead (final concentration: 5 μg/ml) binds. These components are dissolved in a buffer which contains 20 mM HEPES pH 7.0, 200 mM NaCL, 80 mM EDTA as well as 0.3% BSA. This reaction mixture is incubated in the dark for 1 hour at ambient temperature. When these beads come physically close, visible light is emitted which is measured in a photometer at 520-620 nm.
To determine the inhibitory activity of the compounds according to the invention a calculation is made to determine the percentage by which the kinase activity is inhibited at a fixed inhibitor concentration of 1 μM. The maximum activity is determined by non-inhibited kinase. The minimum activity or nonspecific background activity is determined using a reaction mixture without kinase.
Table 2 summarises the degree of inhibition of the enzyme p38 MAP-kinase—as described hereinbefore—mediated by the compounds according to the invention detailed in the section “Preparation of the final compounds”.

cytochrome P450 2C9 = cytochrome P450 2C9 (Homo sapiens, UniProt P11712); test: Determining the cyp2C9 activity (O-demethylation of [O-methyl-14C]-naproxen); type: in vitro ADME; details: human recombinant cytochrome P450 2C9; 37° C.; <0.4 μM when inhibition >50% at lowest concentration; read-out: CYP 2C9 IC50
Experimental: Determining the cyp2C9 Activity:
The assay is carried out in a robot system with 96-well plates. The final incubation volume is 200 μl of TRIS-Puffer (0.1 M), magnesium chloride (5 mM), recombinant protein (40 pmol/ml), ^14C-labelled naproxen (80 μM) and the test compound in one of 4 concentrations (50 μM, 10 μM, 2 μM and 0.4 μM) as a duplicate in each case. After a short preincubation period the reactions are started by the addition of the cofactor (NADPH, 1 mM) and ended after 15 min by the addition of 50 μl of a 10% aqueous trichloroacetic acid solution. One aliquot of the incubate is transferred onto a 96-well solid phase extraction plate and extracted. The ^14C-formaldehyde formed during the reaction is not retained on the solid phase extraction plate and is thus separated from the unmetabolised substrate by washing the solid phase extraction plate with water. One aliquot of the eluate is transferred into a well plate suitable for liquid scintillation. […] The IC50 is determined by the least squares method using the following formula: control activity=(100% control activity/(1+(I/IC50)S))−B where I=Inhibitor concentration S=Pitch B=Background activity
When the inhibition of the reaction is >50% even at the lowest concentration of the test compound, the IC50 is given as <0.4 μM.

[1] = Determining the solubility (saturated solution in McIlvaine buffer pH 7.4, UV spectroscopy); type: physicochemical; details: pH 7.4, aqueous buffer, thermodynamic from solid, shaken 2 hours, 0.75 mg solid in 0.75 ml
Experimental: Determining the Solubility:
Saturated solutions are prepared in suitable well dishes by adding 0.75 ml of a McIlvaine buffer (pH 7.4) to the well in question containing 0.75 mg of solid of an active substance. The wells are shaken for 2 hours and then filtration is carried out through a suitable filter membrane (typically polytetrafluoroethylene with a pore size of 0.45 μm). Filter absorption is prevented by discarding the first few drops of filtrate. The amount of active substance dissolved is determined by UV spectroscopy.

cytochrome P450 2C9, sequence (P11712 whole entry): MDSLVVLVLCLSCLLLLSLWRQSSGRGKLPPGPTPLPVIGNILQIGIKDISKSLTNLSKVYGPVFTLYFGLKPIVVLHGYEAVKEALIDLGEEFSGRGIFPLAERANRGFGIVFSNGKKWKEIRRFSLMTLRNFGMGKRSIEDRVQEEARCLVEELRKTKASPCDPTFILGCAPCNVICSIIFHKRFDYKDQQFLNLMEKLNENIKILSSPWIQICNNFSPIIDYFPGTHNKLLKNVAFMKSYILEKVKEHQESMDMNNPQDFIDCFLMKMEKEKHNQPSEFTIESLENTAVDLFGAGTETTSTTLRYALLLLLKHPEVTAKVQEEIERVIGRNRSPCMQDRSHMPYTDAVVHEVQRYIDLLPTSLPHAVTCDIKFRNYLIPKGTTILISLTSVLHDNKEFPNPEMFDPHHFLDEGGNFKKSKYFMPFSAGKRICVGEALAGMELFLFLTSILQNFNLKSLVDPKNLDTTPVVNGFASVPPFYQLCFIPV
p38 MAP-kinase, sequence (Q16539 whole entry): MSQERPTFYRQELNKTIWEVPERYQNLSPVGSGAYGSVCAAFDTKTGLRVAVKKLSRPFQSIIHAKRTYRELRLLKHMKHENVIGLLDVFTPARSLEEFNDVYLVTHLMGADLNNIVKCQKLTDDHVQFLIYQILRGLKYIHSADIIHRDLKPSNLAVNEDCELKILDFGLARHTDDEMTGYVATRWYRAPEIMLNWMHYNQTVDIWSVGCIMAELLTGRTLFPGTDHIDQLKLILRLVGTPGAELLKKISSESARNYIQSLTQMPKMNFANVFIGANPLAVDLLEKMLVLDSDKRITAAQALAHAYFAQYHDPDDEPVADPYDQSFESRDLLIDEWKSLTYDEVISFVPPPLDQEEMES

Structure (SMILES) | inhibition at 1 µM (p38 MAP-kinase) | IC50 (cytochrome P450 2C9) | solubility at 2 h [1] | p38 (% Inh @ 1 μM) (p38 MAP-kinase)
COc1c(NC(=O)c2cc3cccc(CN4CCN(C(=O)[C@@H]5CCCN5C)CC4)c3n2C)cc(C(C)(C)C)cc1NS(C)(=O)=O [1(1), (S)-1-methyl-7-[4-(1-methyl-pyrrolidine-2-carbonyl)-piperazin-1-ylmethyl]-1H-indole-2-carboxylic acid(5-tert-butyl-3-methanesulphonylamino-2-methoxy-phenyl)-amide] | 99.6% | 2130 nM | 340 µg/mL (≈ 532 µM) | 
COc1c(NC(=O)c2cc3cccc(CN4CCN(C(=O)C5CN(C)C5)CC4)c3n2C)cc(C(C)(C)C)cc1NS(C)(=O)=O [1(2), 1-methyl-7-[4-(1-methyl-azetidine-3-carbonyl)-piperazin-1-ylmethyl]-1H-indole-2-carboxylic acid(5-tert-butyl-3-methanesulphonylamino-2-methoxy-phenyl)-amide] | 98.5% | 1340 nM | 59 µg/mL (≈ 94.4 µM) | 
COc1c(NC(=O)c2cc3cccc(CN4CCN(C(=O)[C@H]5CCCN5C)CC4)c3n2C)cc(C(C)(C)C)cc1NS(C)(=O)=O [1(3), (R)-1-methyl-7-[4-(1-methyl-pyrrolidine-2-carbonyl)-piperazin-1-ylmethyl]-1H-indole-2-carboxylic acid(5-tert-butyl-3-methanesulphonylamino-2-methoxy-phenyl)-amide] | 99.1% | 1040 nM | 160 µg/mL (≈ 250 µM) | 
COc1c(NC(=O)c2cc3cccc(CN4CCN(C(=O)[C@@H]5CCCN5)CC4)c3n2C)cc(C(C)(C)C)cc1NS(C)(=O)=O [1(4), (S)-1-methyl-7-[4-(pyrrolidine-2-carbonyl)-piperazin-1-ylmethyl]-1H-indole-2-carboxylic acid(5-tert-butyl-3-methanesulphonylamino-2-methoxy-phenyl)-amide] | 99.2% | 890 nM | 100 µg/mL (≈ 160 µM) | 
COc1c(NC(=O)c2cc3cccc(CN4CCN(C(=O)C5CCN5C)CC4)c3n2C)cc(C(C)(C)C)cc1NS(C)(=O)=O (stereo not drawn) [1(5), 1-methyl-7-[4-(1-methyl-azetidine-2-carbonyl)-piperazin-1-ylmethyl]-1H-indole-2-carboxylic acid(5-tert-butyl-3-methanesulphonylamino-2-methoxy-phenyl)-amide] | 99% | 1630 nM | 670 µg/mL (≈ 1070 µM) | 
COc1c(NC(=O)c2cc3cccc(CC4CCN(C(=O)[C@H]5CCCN5C)CC4)c3n2C)cc(C(C)(C)C)cc1NS(C)(=O)=O [1(6), (R)-1-methyl-7-[1-(1-methyl-pyrrolidine-2-carbonyl)-piperidin-4-ylmethyl]-1H-indole-2-carboxylic acid(5-tert-butyl-3-methanesulphonylamino-2-methoxy-phenyl)-amide] | 99.3% | 1430 nM | 560 µg/mL (≈ 878 µM) | 
COc1c(NC(=O)c2cc3cccc(CC4CCN(C(=O)[C@@H]5CCCN5C)CC4)c3n2C)cc(C(C)(C)C)cc1NS(C)(=O)=O [1(7), (S)-1-methyl-7-[1-(1-methyl-pyrrolidine-2-carbonyl)-piperidin-4-ylmethyl]-1H-indole-2-carboxylic acid(5-tert-butyl-3-methanesulphonylamino-2-methoxy-phenyl)-amide] | 98.9% | 780 nM | 170 µg/mL (≈ 267 µM) | 
COc1c(NC(=O)c2cc3cccc(CN4CCN(C(=O)[C@@H]5C[C@@H](O)CN5C)CC4)c3n2C)cc(C(C)(C)C)cc1NS(C)(=O)=O [1(8), 7-[4-((2S,4R)-4-hydroxy-1-methyl-pyrrolidine-2-carbonyl)-piperazin-1-ylmethyl]-1-methyl-1H-indole-2-carboxylic acid(5-tert-butyl-3-methanesulphonylamino-2-methoxy-phenyl)-amide] | 98.9% | 1020 nM | 84 µg/mL (≈ 128 µM) | 
COc1c(NC(=O)c2cc3cccc(CN4CCN(C(=O)[C@H]5C[C@@H](OC)CN5C)CC4)c3n2C)cc(C(C)(C)C)cc1NS(C)(=O)=O [1(9), 7-[4-((2R,4R)-4-methoxy-1-methyl-pyrrolidine-2-carbonyl)-piperazin-1-ylmethyl]-1-methyl-1H-indole-2-carboxylic acid(5-tert-butyl-3-methanesulphonylamino-2-methoxy-phenyl)-amide] | 98.9% | 1120 nM | 440 µg/mL (≈ 658 µM) | 
COc1c(NC(=O)c2cc3cccc(CN4CCN(C(=O)[C@H]5C[C@@H](O)CN5C)CC4)c3n2C)cc(C(C)(C)C)cc1NS(C)(=O)=O [1(10), 7-[4-((2R,4R)-4-hydroxy-1-methyl-pyrrolidine-2-carbonyl)-piperazin-1-ylmethyl]-1-methyl-1H-indole-2-carboxylic acid(5-tert-butyl-3-methanesulphonylamino-2-methoxy-phenyl)-amide] | 99.6% | 410 nM | 43 µg/mL (≈ 65.7 µM) | 
COc1c(NC(=O)c2cc3cccc(CN4CCN(C(=O)[C@H]5C[C@H](O)CN5C)CC4)c3n2C)cc(C(C)(C)C)cc1NS(C)(=O)=O [1(11), 7-[4-((2R,4S)-4-hydroxy-1-methyl-pyrrolidine-2-carbonyl)-piperazin-1-ylmethyl]-1-methyl-1H-indole-2-carboxylic acid(5-tert-butyl-3-methanesulphonylamino-2-methoxy-phenyl)-amide] | 99.2% | 410 nM | 45 µg/mL (≈ 68.7 µM) | 
COc1c(NC(=O)c2cc3cccc(CN4CCN(C(=O)[C@@H]5C[C@H](O)CN5C)CC4)c3n2C)cc(C(C)(C)C)cc1NS(C)(=O)=O [1(12), 7-[4-((2S,4S)-4-hydroxy-1-methyl-pyrrolidine-2-carbonyl)-piperazin-1-ylmethyl]-1-methyl-1H-indole-2-carboxylic acid(5-tert-butyl-3-methanesulphonylamino-2-methoxy-phenyl)-amide] | 98.9% | 1550 nM | 140 µg/mL (≈ 214 µM) | 
COc1c(NC(=O)c2cc3cccc(CN4CCN(C(=O)C(C)N5CCCC5)CC4)c3n2C)cc(C(C)(C)C)cc1NS(C)(=O)=O (stereo not drawn) [1(13), 1-methyl-7-[4-(2-pyrrolidin-1-yl-propionyl)-piperazin-1-ylmethyl]-1H-indole-2-carboxylic acid-(5-tert-butyl-3-methanesulphonylamino-2-methoxy-phenyl)-amide] | 98.7% | 560 nM | 40 µg/mL (≈ 61.3 µM) | 
COc1c(NC(=O)c2cc3cccc(CN4CCN(C(=O)CN5CCN(C(C)C)CC5)CC4)c3n2C)cc(C(C)(C)C)cc1NS(C)(=O)=O [1(14), 7-{4-[2-(4-isopropyl-piperazin-1-yl)-acetyl]-piperazin-1-ylmethyl}-1-methyl-1H-indole-2-carboxylic acid-(5-tert-butyl-3-methanesulphonylamino-2-methoxy-phenyl)-amide] | 99.1% | 630 nM | 120 µg/mL (≈ 172 µM) | 
COc1c(NC(=O)c2cc3cccc(CN4CCN(C(=O)[C@@H]5CCCN5C)CC4)c3n2C)cc(C(C)(C)C)cc1[S+](C)[O-] (stereo partly drawn) [11(3), 1-methyl-7-[4-((2S)-1-methyl-pyrrolidine-2-carbonyl)-piperazin-1-ylmethyl]-1H-indole-2-carboxylic acid-(5-tert-butyl-3-methanesulphinyl-2-methoxy-phenyl)-amide] | 98.6% | 780 nM and 870 nM and 560 nM |  | 99.0% and 98.7%
